Reference: US9296751B1, “Indolizino[3,2-c]quinoline derivatives, pharmaceutically acceptable salt thereof, preparation method thereof and pharmaceutical composition for treatment of cystic fibrosis containing the same as active ingredient” (INDUSTRY-ACADEMIC COOPERATION FOUNDATION, YONSEI UNIVERSITY, priority 2014, dated 2016)

How the values were obtained:
[1] = molecular target: T1, human cystic fibrosis conductance transmembrane regulator (CFTR) (Homo sapiens, UniProt P13569); experiment: Effect upon CFTR chloride ion channel activity (YFP fluorescence quenching by iodide influx in FRT cells); type: cell-based; conditions: for Emax at 30 µM: FRT, 10 min, final concentration of 30 μM, reaction for 10 minutes, ratio based on the CFTR activity maximized by forskolin; for CFTR activity ratio, result in words: 30 μM, comment on Table 2
T1 construct: expressed in transfected cells; host or cells: FRT cells (Fischer rat thyroid epithelial cells)
T1 sequence (P13569 whole entry): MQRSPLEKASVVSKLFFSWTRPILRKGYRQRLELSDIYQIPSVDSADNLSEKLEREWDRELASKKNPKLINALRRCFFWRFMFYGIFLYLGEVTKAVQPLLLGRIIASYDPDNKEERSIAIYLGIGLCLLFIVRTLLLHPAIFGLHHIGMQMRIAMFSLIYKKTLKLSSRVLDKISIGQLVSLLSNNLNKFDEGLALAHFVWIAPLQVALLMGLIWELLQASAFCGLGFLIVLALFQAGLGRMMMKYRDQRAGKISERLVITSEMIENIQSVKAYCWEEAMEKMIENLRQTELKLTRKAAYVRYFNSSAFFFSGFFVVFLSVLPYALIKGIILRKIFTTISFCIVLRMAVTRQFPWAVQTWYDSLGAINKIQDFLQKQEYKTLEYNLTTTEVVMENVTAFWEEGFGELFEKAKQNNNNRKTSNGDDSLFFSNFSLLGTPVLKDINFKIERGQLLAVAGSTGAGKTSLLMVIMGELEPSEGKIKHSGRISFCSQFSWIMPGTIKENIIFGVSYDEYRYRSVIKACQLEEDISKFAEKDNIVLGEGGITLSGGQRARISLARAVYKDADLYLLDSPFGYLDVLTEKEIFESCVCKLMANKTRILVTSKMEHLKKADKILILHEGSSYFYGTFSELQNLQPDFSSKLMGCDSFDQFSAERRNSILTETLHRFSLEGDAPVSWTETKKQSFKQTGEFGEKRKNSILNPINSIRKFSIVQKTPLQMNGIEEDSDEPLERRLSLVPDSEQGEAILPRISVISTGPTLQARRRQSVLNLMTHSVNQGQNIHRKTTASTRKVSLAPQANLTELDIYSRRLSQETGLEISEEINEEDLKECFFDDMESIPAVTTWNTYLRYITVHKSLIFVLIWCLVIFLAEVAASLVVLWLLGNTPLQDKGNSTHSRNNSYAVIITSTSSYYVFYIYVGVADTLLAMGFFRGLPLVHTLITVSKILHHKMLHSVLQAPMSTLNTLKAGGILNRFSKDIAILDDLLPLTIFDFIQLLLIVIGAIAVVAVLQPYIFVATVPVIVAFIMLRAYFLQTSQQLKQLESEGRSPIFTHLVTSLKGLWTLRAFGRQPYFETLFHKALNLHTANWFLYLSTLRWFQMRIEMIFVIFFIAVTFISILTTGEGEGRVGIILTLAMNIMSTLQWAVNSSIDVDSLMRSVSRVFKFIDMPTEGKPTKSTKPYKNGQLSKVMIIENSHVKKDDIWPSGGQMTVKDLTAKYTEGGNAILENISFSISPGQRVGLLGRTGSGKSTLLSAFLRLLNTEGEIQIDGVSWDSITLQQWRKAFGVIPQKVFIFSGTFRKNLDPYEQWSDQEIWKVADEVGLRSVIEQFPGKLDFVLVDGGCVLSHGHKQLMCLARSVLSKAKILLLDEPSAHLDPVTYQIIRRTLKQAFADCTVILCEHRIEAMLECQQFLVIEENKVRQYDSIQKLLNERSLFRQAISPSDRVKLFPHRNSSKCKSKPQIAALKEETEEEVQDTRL
Description: FRT cells expressing […] specific to human cystic fibrosis conductance transmembrane regulator (CFTR) and iodide ions are cultured in the Coon's modified F-12 culture medium for 48 hours on a 96-well plate. Each well of the plate containing the cultured cells is washed three times with 200 μl of PBS buffer, and then 100 μl of PBS buffer is added to each well. The indolizino[3,2-c]quinoline derivative according to each Example is introduced to each well to a final concentration of 30 μM, followed by reaction for 10 minutes. After the completion of the reaction, the 96-well is mounted to a FLUOstar Omega microplate reader (BMG LABTECH) and 100 μl of NaI solution is added to each well. Then, YFP fluorescence reduced by the iodide ions introduced to the cells through CFTR is recorded at an interval of 0.4 seconds for 24 seconds in total, thereby evaluating the effect of each compound upon CFTR activity.
The effect of each indolizino[3,2-c]quinoline derivative upon CFTR chloride ion channel activity is calculated as an activity ratio based on the CFTR activity maximized by a well-known CFTR agonist, forskolin.

Compound	melting point [°C]	Emax at 30 µM [1] [%]	CFTR activity ratio, result in words [1]
Brc1ccc2cc3c4ccccc4nc(-c4ccco4)c3n2c1 [Example 29, 9-Bromo-6-(furna-2-yl)indolizino[3,2-c]quinoline]	193.3 to 193.6	–	–
Cc1ccc(-c2nc3ccccc3c3cc4c(C)cccn4c23)cc1 [Example 20, 11-Methyl-6-(p-tolyl)indolizino[3,2-c]quinoline]	162.5 to 163.1	–	–
COc1ccc(-c2nc3ccccc3c3cc4ccc(Br)cn4c23)cc1OC [Example 26, 9-Bromo-6-(3,4-dimethoxyphenyl)indolizino[3,2-c]quinoline]	188.5 to 189	–	–
COc1cc(OC)cc(-c2nc3ccccc3c3cc4c(C)cccn4c23)c1 [Example 21, 6-(3,5-Dimethoxyphenyl)-11-methylindolizino[3,2-c]quinoline]	185.8 to 186.4	66	–
COc1ccc(-c2nc3ccccc3c3cc4c(C)cccn4c23)cc1OC [Example 22, 6-(3,4-Dimethoxyphenyl)-11-methylindolizino[3,2-c]quinoline]	162.8 to 163.3	–	–
COc1ccc(-c2nc3ccccc3c3cc4ccc(-c5ccc([N+](=O)[O-])cc5)cn4c23)cc1 [Example 41, 6-(4-Methoxyphenyl)-9-(4-nitrophenyl)indolizino[3,2-c]quinoline]	256 to 256.6	–	–
Cc1ccc(-c2nc3ccccc3c3cc4ccc(Br)cn4c23)cc1 [Example 25, 9-Bromo-6-(p-tolyl)indolizino[3,2-c]quinolone]	230.8 to 231.2	–	–
Cc1cccn2c1cc1c3ccccc3nc(-c3cccc(F)c3)c12 [Example 17, 6-(3-Fluorophenyl)-11-methylindolizino[3,2-c]quinoline]	176.1 to 176.5	50	–
c1ccc2c(-c3nc4ccccc4c4cc5ccc(-c6ccoc6)cn5c34)cccc2c1 [Example 43, 9-(Furan-3-yl)-6-(naphthalene-1 yl)indolizino[3,2-c]quinoline]	91.3 to 92	–	–
COc1ccc(-c2nc3ccccc3c3cc4ccc(Br)cn4c23)cc1 [Example 24, 9-Bromo-6-(4-methoxyphenyl)indolizino[3,2-c]quinoline]	229.5 to 230	–	–
c1ccc2cc(-c3nc4ccccc4c4cc5ccccn5c34)ccc2c1 [Example 13, 6-(Naphthalen-2-yl)indolizino[3,2-c]quinoline]	205.6 to 206.2	83	high activity ratio
COc1cc(OC)cc(-c2ccc3cc4c5ccccc5nc(-c5cccc6ccccc56)c4n3c2)c1 [Example 42, 9-(3,5-Dimethoxyphenyl)-6-(naphthalene-1-yl)indolizino[3,2-c]quinoline]	177.5 to 177.8	–	–
Brc1ccc2cc3c4ccccc4nc(-c4ccc(Br)s4)c3n2c1 [Example 28, 9-Bromo-6-(5-bromothiophen-2-yl)indolizino[3,2-c]quinoline]	223.3 to 223.7	–	–
Cc1cccn2c1cc1c3ccccc3nc(-c3ccc([N+](=O)[O-])cc3)c12 [Example 18, 11-Methyl-6-(4-nitrophenyl)indolizino[3,2-c]quinoline]	259.7 to 260.4	–	–

The next lines start with the values.

melting point [°C]	Emax at 30 µM [1] [%]	CFTR activity ratio, result in words [1]	Compound
232.3 to 232.5	–	–	COC(=O)c1c2c3ccccc3nc(-c3ccc(Br)cc3)c2n2ccccc12 [Example 30, Methyl 6-(4-bromophenyl)indolizino[3,2-c]quinoline-12-carboxylate]
190.5 to 191	–	–	Clc1ccc(-c2nc3ccccc3c3cc4ccccn4c23)cc1 [Example 3, 6-(4-Chlorophenyl)indolizino[3,2-c]quinoline]
165 to 166	–	–	COc1cccc(-c2nc3ccccc3c3cc4c(C)cccn4c23)c1 [Example 19, 6-(3-Methoxyphenyl)-11-methylindolizino[3,2-c]quinoline]
210.3 to 210.7	–	–	CCOC(=O)c1c2c3ccccc3nc(-c3ccc4ccccc4c3)c2n2ccccc12 [Example 39, Ethyl 6-(naphthalene-2-yl)indolizino[3,2-c]quinoline-12-carboxylate]
164.3 to 164.7	–	–	COc1ccc(-c2nc3ccccc3c3cc4ccccn4c23)cc1 [Example 7, 6-(4-Methoxyphenyl)indolizino[3,2-c]quinoline]
85.3 to 86	–	–	Cc1ccc(-c2nc3ccccc3c3cc4ccccn4c23)cc1 [Example 9, 6-(p-Tolyl)indolizino[3,2-c]quinoline]
167 to 167.4	–	–	Fc1ccc(-c2nc3ccccc3c3cc4ccccn4c23)cc1 [Example 2, 6-(4-Fluorophenyl)indolizino[3,2-c]quinoline]
139.7 to 140.4	63	high activity ratio	COc1cc(OC)cc(-c2nc3ccccc3c3cc4ccccn4c23)c1 [Example 10, 6-(3,5-Dimethoxyphenyl)indolizino[3,2-c]quinoline]
91.3 to 92	–	–	COc1ccc(-c2nc3ccccc3c3cc4ccccn4c23)cc1OC [Example 11, 6-(3,4-Dimethoxyphenyl)indolizino[3,2-c]quinoline]
221.6 to 221.9	–	–	COc1ccc(-c2nc3ccccc3c3c(Br)c4ccccn4c23)cc1 [Example 44, 12-Bromo-6-(4-methoxyphenyl)indolizino[3,2-c]quinoline]
214.3 to 214.5	–	–	CCOC(=O)c1c2c3ccccc3nc(-c3cccc(Cl)c3)c2n2ccccc12 [Example 35]
230.8 to 231.4	37	–	COC(=O)c1c2c3ccccc3nc(-c3ccc[nH]3)c2n2ccccc12 [Example 33, Methyl 6-(1H-pyrrol-2-yl)indolizino[3,2-c]quinoline-12-carboxylate]
245.8 to 246.1	–	–	CCOC(=O)c1c2c3ccccc3nc(-c3ccc([N+](=O)[O-])cc3)c2n2ccccc12 [Example 36, Ethyl 6-(4-nitrophenyl)indolizino[3,2-c]quinoline-12-carboxylate]
245.8 to 246.2	–	–	COC(=O)c1c2c3ccccc3nc(-c3cccc4ccccc34)c2n2ccccc12 [Example 32, Methyl 6-(naphthalene-1-yl)indolizino[3,2-c]quinoline-12-carboxylate]
174 to 174.4	–	–	COc1cccc(-c2nc3ccccc3c3cc4ccccn4c23)c1 [Example 8, 6-(3-Methoxyphenyl)indolizino[3,2-c]quinoline]
124.3 to 125.3	–	–	Clc1cccc(-c2nc3ccccc3c3cc4ccccn4c23)c1 [Example 4, 6-(3-Chlorophenyl)indolizino[3,2-c]quinoline]
161.4 to 161.7	98	high activity ratio	Clc1ccc(-c2nc3ccccc3c3cc4ccccn4c23)s1 [Example 15, 6-(5-Chlorothiophen-2-yl)indolizino[3,2-c]quinoline]
173.4 to 173.8	–	–	CCOC(=O)c1c2c3ccccc3nc(-c3cccc(OC)c3)c2n2ccccc12 [Example 37, Ethyl 6-(3-methoxyphenyl)indolizino[3,2-c]quinoline-12-carboxylate]
141.9 to 142.8	–	–	c1ccc(-c2nc3ccccc3c3cc4ccccn4c23)cc1 [Example 6, 6-Phenylindolizino[3,2-c]quinoline]
202.1 to 202.4	–	–	CCOC(=O)c1c2c3ccccc3nc(-c3cccc(F)c3)c2n2ccccc12 [Example 34, Ethyl 6-(3-fluorophenyl)indolizino[3,2-c]quinoline-12-carboxylate]
